Measured values: US8859768B2, “Heteroaryls and uses thereof” (Millennium Pharmaceuticals, Inc., priority 2010, dated 2014)

The molecules below were run against T1, Human VPS34 (Homo sapiens, UniProt Q8NEB9) (assay: Human VPS34 Enzyme Assay (Adapta TR-FRET)). Conditions: compound at 1.111 μM; read-out: Average VPS34 % INH @ 1.111 μM.
T1 construct: GST (N); host or cells: SF9 insect cells (baculovirus)
Type: biochemical
Experimental: VPS34 (accession number GB:BC033004) was cloned into pDEST20-Thombin as N-terminal GST tagged fusion proteins using the Gateway system (Invitrogen, catalog#11804-013). The sequences were verified before recombinant protein expression using the Baculovirus Expression System with Gateway® Technology.
For expression VPS34 was infected at 1MOI in SF9 cells and harvested 72 hours post infection.
For purification, VPS34 is purified by Glutathione Sepharose 4 Fast Flow (GE Healthcare #17-5132-03) followed by HiTrap Q (GE Healthcare #17-1153-01).
Human VPS34 Enzyme Assay Method
100 nL compounds in DMSO are added to wells of a 384 well microtitre plate (Greiner 780076). At room temperature: 5 ul VPS34 reaction buffer (Invitrogen Assay Buffer Q (diluted 1 in 5 with nanopure water) plus 2 mM DTT and 2 mM MnCl2) containing ATP (20 uM, Promega) and 200 uM PI-PS substrate (Invitrogen PV5122) is added followed immediately by 5 ul VPS34 reaction buffer (as above) containing VPS34 (5 nM, Millennium Protein Sciences Group) and the mixture is incubated with shaking at room temperature for 1 hour. Then 5 ul VPS34 stop-detect mix (as per Invitrogen Adapta Assay kit (PV5009) instructions (contains kinase quench buffer, TR-FRET buffer, Adapta Eu anti-ADP antibody and Alexa Fluor 647 ADP tracer)) is added to quench the reaction. The plates are then incubated for 30 minutes at room temperature with shaking and then read on a BMG PheraStar Plus reader.
3) VPS34 is assayed using Adapta™ Universal Kinase Assay Kit (Invitrogen).

T1 sequence (Q8NEB9 whole entry): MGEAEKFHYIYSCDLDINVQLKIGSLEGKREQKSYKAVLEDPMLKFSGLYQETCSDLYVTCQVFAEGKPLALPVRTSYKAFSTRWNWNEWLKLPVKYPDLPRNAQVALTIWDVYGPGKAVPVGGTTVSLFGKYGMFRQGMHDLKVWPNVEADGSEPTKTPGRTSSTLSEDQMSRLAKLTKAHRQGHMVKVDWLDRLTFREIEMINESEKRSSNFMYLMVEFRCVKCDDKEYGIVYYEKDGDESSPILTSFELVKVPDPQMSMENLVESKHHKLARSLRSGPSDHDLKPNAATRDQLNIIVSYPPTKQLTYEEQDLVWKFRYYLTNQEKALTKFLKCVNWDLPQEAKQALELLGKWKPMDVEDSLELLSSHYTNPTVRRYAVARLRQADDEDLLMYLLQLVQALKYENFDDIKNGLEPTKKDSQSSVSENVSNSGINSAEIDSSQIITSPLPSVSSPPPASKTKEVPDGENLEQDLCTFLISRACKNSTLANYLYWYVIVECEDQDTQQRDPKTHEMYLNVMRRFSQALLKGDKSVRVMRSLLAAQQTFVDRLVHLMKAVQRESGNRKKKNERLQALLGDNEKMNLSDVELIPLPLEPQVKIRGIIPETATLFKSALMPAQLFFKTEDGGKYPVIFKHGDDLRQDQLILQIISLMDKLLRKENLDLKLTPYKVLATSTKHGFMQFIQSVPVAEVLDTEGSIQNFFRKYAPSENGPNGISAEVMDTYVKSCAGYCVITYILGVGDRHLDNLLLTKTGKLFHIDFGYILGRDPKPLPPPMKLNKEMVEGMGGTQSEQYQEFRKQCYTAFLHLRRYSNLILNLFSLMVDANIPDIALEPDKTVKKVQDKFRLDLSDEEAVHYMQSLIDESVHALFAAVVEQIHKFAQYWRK

SMILES | inhibition at 1.111 µM [%]
COCCNC(=O)c1nc(-c2cc(NC(C)=O)ncc2C)oc1-c1ccccc1Cl [Compound I-64, 2-(2-acetamido-5-methylpyridin-4-yl)-5-(2-chlorophenyl)-N-(2-methoxyethyl)-1,3-oxazole-4-carboxamide] | 64
CC(C)CC(=O)Nc1cc(-c2nc(-c3nnc[nH]3)c(-c3ccccc3Cl)o2)ccn1 [Compound I-65, N-{4-[5-(2-chlorophenyl)-4-(4H-1,2,4-triazol-3-yl)-1,3-oxazol-2-yl]pyridin-2-yl}-3-methylbutanamide] | 21
O=C(Cc1ccccc1)Nc1cc(-c2nc(-c3nnc[nH]3)c(-c3ccccc3Cl)o2)ccn1 [Compound I-67, N-{4-[5-(2-chlorophenyl)-4-(4H-1,2,4-triazol-3-yl)-1,3-oxazol-2-yl]pyridin-2-yl}-2-phenylacetamide] | 39
CC(=O)Nc1cc(-c2cc(C(=O)NCc3cccnc3)c(-c3ccccc3Cl)o2)c(C)cn1 [Compound I-68, 5-(2-acetamido-5-methylpyridin-4-yl)-2-(2-chlorophenyl)-N-(pyridin-3-ylmethyl)-3-furamide] | 104
CC(=O)Nc1cc(-c2cc(-c3ncco3)c(-c3ccccc3Cl)o2)c(C)cn1 [Compound I-69, N-{4-[5-(2-chlorophenyl)-4-(1,3-oxazol-2-yl)-2-furyl]-5-methylpyridin-2-yl}acetamide] | 144
CC(=O)Nc1cc(-c2nc(C(=O)NCCn3ccnc3)c(-c3ccccc3Cl)o2)c(C)cn1 [Compound I-70, 2-(2-acetamido-5-methylpyridin-4-yl)-5-(2-chlorophenyl)-N-[2-(1H-imidazol-1-yl)ethyl]-1,3-oxazole-4-carboxamide] | 45
Clc1ccccc1-c1oc(-c2ccnc3[nH]ccc23)nc1-c1nnc[nH]1 [Compound I-71, 4-[5-(2-chlorophenyl)-4-(4H-1,2,4-triazol-3-yl)-1,3-oxazol-2-yl]-1H-pyrrolo[2,3-b]pyridine] | 87
CC(=O)Nc1cc(-c2cc(C(=O)NC(C)C)c(-c3ccccc3Cl)o2)c(C)cn1 [Compound I-72, 5-(2-acetamido-5-methylpyridin-4-yl)-2-(2-chlorophenyl)-N-isopropyl-3-furamide] | 78
CC(=O)Nc1cc(-c2nc(C(=O)N(C)C)c(-c3ccccc3Cl)o2)c(C)cn1 [Compound I-73, 2-(2-acetamido-5-methylpyridin-4-yl)-5-(2-chlorophenyl)-N,N-dimethyl-1,3-oxazole-4-carboxamide] | 115
CC(=O)Nc1cc(-c2nc(C(=O)NC3CCC3)c(-c3ccccc3Cl)o2)c(C)cn1 [Compound I-74, 2-(2-acetamido-5-methylpyridin-4-yl)-5-(2-chlorophenyl)-N-cyclobutyl-1,3-oxazole-4-carboxamide] | 28
CCC(=O)Nc1cc(-c2nc(-c3nnc[nH]3)c(-c3ccccc3Cl)o2)ccn1 [Compound I-75, N-{4-[5-(2-chlorophenyl)-4-(4H-1,2,4-triazol-3-yl)-1,3-oxazol-2-yl]pyridin-2-yl}propanamide] | 114
CCCC(=O)Nc1cc(-c2nc(-c3nnc[nH]3)c(-c3ccccc3Cl)o2)ccn1 [Compound I-76, N-{4-[5-(2-chlorophenyl)-4-(4H-1,2,4-triazol-3-yl)-1,3-oxazol-2-yl]pyridin-2-yl}butanamide] | 79

More lines, now with the values ahead:

inhibition at 1.111 µM [%] | SMILES
120 | Cc1cnc(NC(=O)C2CC2)cc1-c1nc(-c2nnc[nH]2)c(-c2ccccc2Cl)o1 [Compound I-77, N-{4-[5-(2-chlorophenyl)-4-(4H-1,2,4-triazol-3-yl)-1,3-oxazol-2-yl]-5-methylpyridin-2-yl}cyclopropanecarboxamide]
43 | CC(=O)Nc1cc(-c2nc(-c3ccccc3Cl)c(-c3ccccn3)o2)c(C)cn1 [Compound I-78, N-{4-[4-(2-chlorophenyl)-5-(pyridin-2-yl)-1,3-oxazol-2-yl]-5-methylpyridin-2-yl}acetamide]
82 | CC(=O)Nc1cc(-c2nc(N3CCCC(N(C)C)C3)c(-c3nnc[nH]3)o2)c(C)cn1 (stereo not drawn) [Compound I-79, N-(4-{4-[3-(dimethylamino)piperidin-1-yl]-5-(4H-1,2,4-triazol-3-yl)-1,3-oxazol-2-yl}-5-methylpyridin-2-yl)acetamide]
92 | CC(=O)Nc1cc(-c2cc(C(=O)NCCC(C)C)c(-c3ccccc3Cl)o2)c(C)cn1 [Compound I-80, 5-(2-acetamido-5-methylpyridin-4-yl)-2-(2-chlorophenyl)-N-(3-methylbutyl)-3-furamide]
112 | CCNC(=O)c1cc(-c2cc(NC(C)=O)ncc2C)oc1-c1ccccc1Cl [Compound I-81, 5-(2-acetamido-5-methylpyridin-4-yl)-2-(2-chlorophenyl)-N-ethyl-3-furamide]
68 | CC(=O)Nc1cc(-c2nc(C(=O)NCCc3cn4ccccc4n3)c(-c3ccccc3Cl)o2)c(C)cn1 [Compound I-82, 2-(2-acetamido-5-methylpyridin-4-yl)-5-(2-chlorophenyl)-N-[2-(imidazo[1,2-a]pyridin-2-yl)ethyl]-1,3-oxazole-4-carboxamide]
130 | CC(=O)Nc1cc(-c2cc(C(N)=O)c(-c3ccccc3Cl)o2)c(C)cn1 [Compound I-83, 5-(2-acetamido-5-methylpyridin-4-yl)-2-(2-chlorophenyl)-3-furamide]
54 | CC(=O)Nc1cc(-c2cc(C(=O)NCCCN3CCCC3)c(-c3ccccc3Cl)o2)c(C)cn1 [Compound I-84, 5-(2-acetamido-5-methylpyridin-4-yl)-2-(2-chlorophenyl)-N-[3-(pyrrolidin-1-yl)propyl]-3-furamide]
56 | CC(=O)Nc1cc(-c2cc(C(=O)NCc3ccc(N(C)C)cc3)c(-c3ccccc3Cl)o2)c(C)cn1 [Compound I-85, 5-(2-acetamido-5-methylpyridin-4-yl)-2-(2-chlorophenyl)-N-[4-(dimethylamino)benzyl]-3-furamide]
117 | Cc1cnc(NC(=O)C2CC2)cc1-c1nc(C(N)=O)c(-c2ccccc2Cl)o1 [Compound I-86, 5-(2-chlorophenyl)-2-{2-[(cyclopropylcarbonyl)amino]-5-methylpyridin-4-yl}-1,3-oxazole-4-carboxamide]
109 | COCC(=O)Nc1cc(-c2nc(-c3nnc[nH]3)c(-c3ccccc3Cl)o2)ccn1 [Compound I-87, N-{4-[5-(2-chlorophenyl)-4-(4H-1,2,4-triazol-3-yl)-1,3-oxazol-2-yl]pyridin-2-yl}-2-methoxyacetamide]
114 | CC(=O)Nc1cc(-c2cc(C(=O)NCc3ccco3)c(-c3ccccc3Cl)o2)c(C)cn1 [Compound I-88, 5-(2-acetamido-5-methylpyridin-4-yl)-2-(2-chlorophenyl)-N-(2-furylmethyl)-3-furamide]
